Tested on: SHR rats having spontaneous hypertension
Assay: Antihypertension test in rat (systolic pressure at the tail artery, tail volume method)
Type: in vivo
Details: for Blood pressure (systolic pressure at the tail artery), 2 weeks after administration: end of week 2; for Blood pressure (systolic pressure at the tail artery), 3 weeks after administration: end of week 3; for Blood pressure (systolic pressure at the tail artery), 4 weeks after administration: end of week 4; for Blood pressure (systolic pressure at the tail artery), before administration / Anti-hypertensive effect compared with the model group: intragastric; for Blood pressure (systolic pressure at the tail artery), before administration: baseline before administration, mean ± spread; for Anti-hypertensive effect compared with the model group: versus model group (0.9% saline)
Description: Experiment method: 120 SHR rats having spontaneous hypertension (female:male 1:2, weighted 200-240 g) were equally divided into 12 groups according to the level of hypertension (the specific grouping method is as shown in Table 1), and intragastrically administrated with the medicine. For the blood pressure of the rat, the systolic pressure at the tail artery of the rat when being wake and quiet was indirectly measured by an electronic blood pressure meter through tail volume method respectively before administration, and at the end of 1, 2, 3, and 4 weeks after administration.

[1] = SHR rats, intragastric daily, n = 10, end of week 1, dose per group in Table 1
[2] = SHR rats, intragastric daily, n = 10, dose per group in Table 1
[3] = SHR rats, n = 10, dose per group in Table 1

OC(CNCC(O)C1CCc2cc(F)ccc2O1)C1CCc2cc(F)ccc2O1 (stereo not shown) [Single medicine group 2, Nebivolol]
Blood pressure (systolic pressure at the tail artery), 1 week after administration [1]: 27.28 ± 1.48 Kpa | Blood pressure (systolic pressure at the tail artery), 2 weeks after administration [2]: 25.94 ± 1.68 KPa | Blood pressure (systolic pressure at the tail artery), 3 weeks after administration [2]: 25.57 ± 1.61 KPa | Blood pressure (systolic pressure at the tail artery), 4 weeks after administration [2]: 25.29 ± 1.49 KPa | Blood pressure (systolic pressure at the tail artery), before administration [3]: 27.42 ± 1.50 KPa | Anti-hypertensive effect compared with the model group (SHR rats): significant anti-hypertensive effect

CC(C)NCC(O)COc1ccc(COCCOC(C)C)cc1 (stereo not shown) [Single medicine group 3, Bisoprolol]
Blood pressure (systolic pressure at the tail artery), 1 week after administration [1]: 27.34 ± 1.41 Kpa | Blood pressure (systolic pressure at the tail artery), 2 weeks after administration [2]: 26.14 ± 1.19 KPa | Blood pressure (systolic pressure at the tail artery), 3 weeks after administration [2]: 25.82 ± 1.20 KPa | Blood pressure (systolic pressure at the tail artery), 4 weeks after administration [2]: 25.58 ± 1.24 KPa | Blood pressure (systolic pressure at the tail artery), before administration [3]: 27.52 ± 1.46 KPa | Anti-hypertensive effect compared with the model group (SHR rats): significant anti-hypertensive effect

CC(C)NCC(O)COc1ccc(CCOCC2CC2)cc1 (stereo not shown) [Single medicine group 4, Betaxolol]
Blood pressure (systolic pressure at the tail artery), 2 weeks after administration [2]: 25.99 ± 1.39 KPa | Blood pressure (systolic pressure at the tail artery), 3 weeks after administration [2]: 25.62 ± 1.46 KPa | Blood pressure (systolic pressure at the tail artery), before administration [3]: 27.45 ± 1.07 KPa | Anti-hypertensive effect compared with the model group (SHR rats): significant anti-hypertensive effect | Blood pressure (systolic pressure at the tail artery), 1 week after administration (po, 168 h): 27.20 ± 1.10 Kpa

CCN(CC)C(=O)Nc1ccc(OCC(O)CNC(C)(C)C)c(C(C)=O)c1 (stereo not shown) [Single medicine group 5, Celiprolol]
Blood pressure (systolic pressure at the tail artery), 1 week after administration [1]: 27.41 ± 1.30 Kpa | Blood pressure (systolic pressure at the tail artery), 3 weeks after administration [2]: 25.83 ± 1.92 KPa | Blood pressure (systolic pressure at the tail artery), 4 weeks after administration [2]: 25.60 ± 2.05 KPa | Blood pressure (systolic pressure at the tail artery), before administration [3]: 27.56 ± 1.23 KPa | Anti-hypertensive effect compared with the model group (SHR rats): significant anti-hypertensive effect

CC(C)(C)NCC(O)COc1cccc2c1CC(O)C(O)C2 (stereo not shown) [Single medicine group 6, Nadolol]
Blood pressure (systolic pressure at the tail artery), 1 week after administration [1]: 27.30 ± 1.56 Kpa | Blood pressure (systolic pressure at the tail artery), 2 weeks after administration [2]: 26.01 ± 1.42 KPa | Blood pressure (systolic pressure at the tail artery), 3 weeks after administration [2]: 25.62 ± 1.47 KPa | Blood pressure (systolic pressure at the tail artery), before administration [3]: 27.51 ± 1.53 KPa | Anti-hypertensive effect compared with the model group (SHR rats): significant anti-hypertensive effect

Levamlodipine benzenesulfonate [Single medicine group 1]
Anti-hypertensive effect compared with the model group (SHR rats): significant anti-hypertensive effect

From patent publication US20110313006A1, “PHARMACEUTICAL COMPOSITION OF LEVAMLODIPINE OR PHARMACEUTICALLY ACCEPTABLE SALT THEREOF AND β RECEPTOR BLOCKING AGENT, AND USE THEREOF” (SHIHUIDA PHARMACEUTICALS GROUP (JILIN) LTD, priority 2010, published 2011)
